Test results published in patent US8802597B2, “Herbicidal pyrimidines” (E I du Pont de Nemours and Company, priority 2003, dated 2014).
Like-named read-outs stand apart in the source and are kept apart here.

Key:
Experiment in all cases: Test C pre/postemergence
Type in all cases: in vivo
[1] = tested on: crabgrass (Digitaria sanguinalis); conditions: Digitaria sanguinalis, pre-emergence, Preemergence, scale 0 to 100, 0 no effect, 100 complete control, read-out: Plant response rating, Crabgrass
Method in brief: (§1)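 Injury scored visually 12–14 days after application on 0–100 scale (100 = complete control), relative to controls. Compounds, formulated with surfactant in non-phytotoxic solvent, applied to soil at planting (pre) or to 1- to 4-leaf plants 2–18 cm tall (post) in greenhouse.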

[2] = tested on: lambsquarters (Chenopodium album); conditions: Chenopodium album; for pest or weed control at 8 g/ha: 8 g ai/ha; for pest or weed control at 16 g/ha: 16 g ai/ha; for pest or weed control at 31 g/ha: 31 g ai/ha; for pest or weed control at 62 g/ha: 62 g ai/ha
Method in brief: as §1

kochia (Kochia scoparia) = conditions: Bassia scoparia; for pest or weed control at 8 g/ha: 8 g ai/ha; for pest or weed control at 16 g/ha: 16 g ai/ha; for pest or weed control at 31 g/ha: 31 g ai/ha; for pest or weed control at 62 g/ha: 62 g ai/ha
Method in brief: as §1

corn (Zea mays) = conditions: Zea mays; for Corn plant response rating (crop injury, 0 = no effect, 100 = complete kill) at 8 g/ha: 8 g ai/ha; for Corn plant response rating (crop injury, 0 = no effect, 100 = complete kill) at 16 g/ha: 16 g ai/ha; for Corn plant response rating (crop injury, 0 = no effect, 100 = complete kill) at 62 g/ha: 62 g ai/ha
Method in brief: as §1

[3] = tested on: velvetleaf (Abutilon theophrasti); conditions: Abutilon theophrasti; for pest or weed control at 8 g/ha: 8 g ai/ha; for pest or weed control at 16 g/ha: 16 g ai/ha; for pest or weed control at 31 g/ha: 31 g ai/ha; for pest or weed control at 62 g/ha: 62 g ai/ha
Method in brief: as §1

[4] = tested on: cocklebur (Xanthium strumarium); conditions: Xanthium strumarium; for pest or weed control at 8 g/ha: 8 g ai/ha; for pest or weed control at 16 g/ha: 16 g ai/ha; for pest or weed control at 31 g/ha: 31 g ai/ha; for pest or weed control at 62 g/ha: 62 g ai/ha
Method in brief: as §1

[5] = tested on: common (oilseed) sunflower (Helianthus annuus); conditions: Helianthus annuus, pre-emergence, Preemergence, read-out: Plant response rating, Sunflower
Method in brief: as §1

[6] = post-emergence, Postemergence, read-out: Plant response rating (scale of 0 to 100), Lambsquarters
[7] = pre-emergence, Preemergence, scale 0 to 100, 0 no effect, 100 complete control, read-out: Plant response rating, Lambsquarters
[8] = post-emergence, Postemergence, read-out: Plant response rating (scale of 0 to 100), Kochia
[9] = pre-emergence, Preemergence, scale 0 to 100, 0 no effect, 100 complete control, read-out: Plant response rating, Kochia
[10] = post-emergence, Postemergence, read-out: Plant response rating (scale of 0 to 100), Corn
[11] = pre-emergence, Preemergence, scale 0 to 100, 0 no effect, 100 complete control, read-out: Plant response rating, Corn
[12] = post-emergence, Postemergence, read-out: Plant response rating (scale of 0 to 100), Velvetleaf
[13] = pre-emergence, Preemergence, scale 0 to 100, 0 no effect, 100 complete control, read-out: Plant response rating, Velvetleaf
[14] = post-emergence, Postemergence, read-out: Plant response rating (scale of 0 to 100), Cocklebur
[15] = pre-emergence, Preemergence, scale 0 to 100, 0 no effect, 100 complete control, read-out: Plant response rating, Cocklebur

Question: With `Nc1nc(-c2ccc(Br)cc2)nc(C(=O)O)c1Cl` [Compound 95, 6-amino-2-(4-bromophenyl)-5-chloro-4-pyrimidinecarboxylic acid] as the compound, how does the pest or weed control at 16 g/ha ([1]; 16 g ai/ha) read?
Answer: 0%

Question: And the pest or weed control at 31 g/ha ([1]; 31 g ai/ha)?
Answer: 30%

Question: And the pest or weed control at 62 g/ha ([1]; 62 g ai/ha)?
Answer: 35%

Question: And the pest or weed control at 8 g/ha ([2]; post-emergence, Postemergence, scale 0 to 100, read-out: Plant response rating, Lambsquarters)?
Answer: 75%

Question: What about the pest or weed control at 16 g/ha [2, 6] of the same compound?
Answer: 100%

Question: And the pest or weed control at 31 g/ha [2, 6]?
Answer: 100%

Question: And the pest or weed control at 62 g/ha [2, 6]?
Answer: 100%

Question: And the pest or weed control at 8 g/ha ([2]; pre-emergence, Preemergence, scale 0 to 100 (0 no effect, 100 complete control), read-out: Plant response rating, Lambsquarters)?
Answer: 0%

Question: What about the pest or weed control at 16 g/ha [2, 7] of the same compound?
Answer: 100%

Question: And the pest or weed control at 31 g/ha [2, 7]?
Answer: 100%

Question: What about the pest or weed control at 62 g/ha [2, 7] of the same compound?
Answer: 100%

Question: And the pest or weed control at 8 g/ha (kochia (Kochia scoparia); post-emergence, Postemergence, scale 0 to 100, read-out: Plant response rating, Kochia)?
Answer: 90%

Question: What about the pest or weed control at 16 g/ha (kochia (Kochia scoparia); [8]) of the same compound?
Answer: 95%

Question: And the pest or weed control at 31 g/ha (kochia (Kochia scoparia); [8])?
Answer: 95%

Question: And the pest or weed control at 62 g/ha (kochia (Kochia scoparia); [8])?
Answer: 95%

Question: And the pest or weed control at 8 g/ha (kochia (Kochia scoparia); pre-emergence, Preemergence, scale 0 to 100 (0 no effect, 100 complete control), read-out: Plant response rating, Kochia)?
Answer: 0%

Question: What about the pest or weed control at 16 g/ha (kochia (Kochia scoparia); [9]) of the same compound?
Answer: 0%

Question: What about the pest or weed control at 31 g/ha (kochia (Kochia scoparia); [9]) of the same compound?
Answer: 40%

Question: And the pest or weed control at 62 g/ha (kochia (Kochia scoparia); [9])?
Answer: 45%

Question: What about the Corn plant response rating (crop injury, 0 = no effect, 100 = complete kill) at 8 g/ha (corn (Zea mays); post-emergence, Postemergence, scale 0 to 100) of the same compound?
Answer: 20%

Question: What about the Corn plant response rating (crop injury, 0 = no effect, 100 = complete kill) at 16 g/ha (corn (Zea mays); [10]) of the same compound?
Answer: 20%

Question: What about the Corn plant response rating (crop injury, 0 = no effect, 100 = complete kill) at 62 g/ha (corn (Zea mays); [10]) of the same compound?
Answer: 35%

Question: And the Corn plant response rating (crop injury, 0 = no effect, 100 = complete kill) at 8 g/ha (corn (Zea mays); pre-emergence, Preemergence, scale 0 to 100 (0 no effect, 100 complete control))?
Answer: 0%

Question: And the Corn plant response rating (crop injury, 0 = no effect, 100 = complete kill) at 16 g/ha (corn (Zea mays); [11])?
Answer: 0%

Question: And the Corn plant response rating (crop injury, 0 = no effect, 100 = complete kill) at 31 g/ha (corn (Zea mays); pre-emergence, Preemergence, 31 g ai/ha, scale 0 to 100, 0 no effect, 100 complete control, read-out: Plant response rating, Corn)?
Answer: 0%

Question: And the Corn plant response rating (crop injury, 0 = no effect, 100 = complete kill) at 62 g/ha (corn (Zea mays); [11])?
Answer: 5%

Question: What about the pest or weed control at 8 g/ha ([3]; post-emergence, Postemergence, scale 0 to 100, read-out: Plant response rating, Velvetleaf) of the same compound?
Answer: 95%

Question: What about the pest or weed control at 16 g/ha [3, 12] of the same compound?
Answer: 95%

Question: And the pest or weed control at 31 g/ha [3, 12]?
Answer: 100%

Question: What about the pest or weed control at 62 g/ha [3, 12] of the same compound?
Answer: 100%

Question: And the pest or weed control at 8 g/ha ([3]; pre-emergence, Preemergence, scale 0 to 100 (0 no effect, 100 complete control), read-out: Plant response rating, Velvetleaf)?
Answer: 0%

Question: What about the pest or weed control at 16 g/ha [3, 13] of the same compound?
Answer: 0%

Question: And the pest or weed control at 31 g/ha [3, 13]?
Answer: 60%

Question: What about the pest or weed control at 62 g/ha [3, 13] of the same compound?
Answer: 90%

Question: And the pest or weed control at 8 g/ha ([4]; post-emergence, Postemergence, scale 0 to 100, read-out: Plant response rating, Cocklebur)?
Answer: 100%

Question: And the pest or weed control at 16 g/ha [4, 14]?
Answer: 100%

Question: And the pest or weed control at 31 g/ha [4, 14]?
Answer: 100%

Question: What about the pest or weed control at 62 g/ha [4, 14] of the same compound?
Answer: 100%

Question: And the pest or weed control at 8 g/ha ([4]; pre-emergence, Preemergence, scale 0 to 100 (0 no effect, 100 complete control), read-out: Plant response rating, Cocklebur)?
Answer: 0%

Question: And the pest or weed control at 16 g/ha [4, 15]?
Answer: 0%

Question: And the pest or weed control at 31 g/ha [4, 15]?
Answer: 0%

Question: And the pest or weed control at 62 g/ha [4, 15]?
Answer: 60%

Question: And the pest or weed control at 8 g/ha ([5]; 8 g ai/ha, scale 0 to 100 (0 no effect, 100 complete control))?
Answer: 5%

Question: And the pest or weed control at 16 g/ha ([5]; 16 g ai/ha, scale 0 to 100, 0 no effect, 100 complete control)?
Answer: 40%

Question: What about the pest or weed control at 31 g/ha ([5]; 31 g ai/ha, scale 0 to 100, 0 no effect, 100 complete control) of the same compound?
Answer: 95%

Question: What about the pest or weed control at 62 g/ha ([5]; 62 g ai/ha, scale 0 to 100, 0 no effect, 100 complete control) of the same compound?
Answer: 100%
